Experimental data published in patent publication US20030088077A1, “Metal chelated dyestuff for inkjet recording and aqueous inkjet recording liquid using the same” (MITSUBISHI CHEMICAL CORPORATION, priority 1999, published 2003).

What was measured:
[1] = Light resistance of a recorded image (xenon fade-meter); type: physicochemical; details: 150 to 160 kJ/m^2 for 80 hours, specialized photoprint paper, larger value = more fading
Method: (a) Light resistance of a recorded image:
Using a xenon fade-meter (manufactured by Atlas), a recording paper was irradiated at an irradiation energy of 150 to 160 kJ/m^2 for 80 hours, and the degree of discoloring and fading before and after the irradiation was measured by Macbeth densitometer (Gretag Macbeth SPM50, manufactured by Macbeth), and quantified as the form of a ΔE value. Incidentally, the ΔE value is a numerical value expressing the degree of discoloring and fading. That is, the larger the value is, the larger the degree of discoloring and fading is and the lower the light fastness of the image is. In the case of the specialized photoprint paper, a good result was obtained at the above measurement wherein the ΔE value was 2.1.

[2] = Indoor discoloring and fading property of a printed image (ozone resistance); type: physicochemical; details: ozone concentration 3 ppm, humidity 50 to 60%, 2 hours, light-shielded; specialized photoprint paper
Method: (b) Indoor discoloring and fading property of a printed image (ozone resistance):
In a light-shielded tank having an ozone concentration of 3 ppm, a printed matter was left on standing under a humidity of 50 to 60% for 2 hours, and the degree of discoloring and fading before and after the standing was measured by Macbeth densitometer (Gretag Macbeth SPM50, manufactured by Macbeth), and quantified as the form of a ΔE value. In the case of the specialized photoprint paper, a good result was obtained at the above measurement wherein the ΔE value was 11.2.

SMILES: N#Cc1nc(/N=N/c2ccc(N(CCC(=O)[O-])CCC(=O)[O-])cc2N)[nH]c1C#N.[Na+].[Na+] [Comparative dyestuff b]
- Light resistance (ΔE) [1]: 7.0
- Indoor discoloring & fading property (ΔE) [2]: 4.3
